The record followed here is patent US9474790B2, “Stable, protracted GLP-1/glucagon receptor co-agonists for medical use” (Novo Nordisk A/S, priority 2013, dated 2016).

Broadly, the IC50 is the concentration needed to halve the response being measured.

Molecules are shown by their SMILES. Numbered stars: 1 amine (or outer) side, 2 acyl side, 3 side chain; on linkers, the order of the positions; unused ones are H or OH. Bridge positions count the residues as written; N and C are the ends. Square brackets hold non-standard residues; d marks the D form. Side chains are listed from the residue outwards. Peptide text beside a SMILES is read from it. I, II: the chains in the order shown. * marks the point of attachment. C18 diacid = O=C(O)CCCCCCCCCCCCCCCCC(=O)*; γGlu = O=C(O)[C@H](CCC(=O)[*:2])N[*:1]; Ac4c = NC1(C(=O)O)CCC1; AEEA = NCCOCCOCC(=O)O; Aib = CC(C)(N)C(=O)O

One data set addresses T1, human GLP-1 receptor (Homo sapiens, UniProt P43220).
T1 construct: expressed in transfected cells; host or cells: BHK cells (parent BHKTS13), clone FCW467-12A/KZ10-1, with CRE luciferase
Put plainly: GLP-1 receptor binding, 125I-GLP-1 displacement SPA on isolated membranes. The note with it: displacement of 125I-GLP-1 from membranes; read-out: IC50 GLP-1R. Summed up:
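Test derivatives, serially diluted, competed with 125I-GLP-1(7-36)NH2 for the human GLP-1 receptor on BHK membranes, read by WGA-bead scintillation proximity after 2 h at 30°C, pH 7.4 HEPES/EGTA/MgCl2 buffer. Final serum albumin was either ≤0.001% or 2.0%; IC50 from non-linear fit.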
(In general: In a radioligand displacement assay an active substance lowers the binding of a labelled ligand.)

The nature of data set [1]: Chemical stability assessment by RP-UPLC. The data set is classed as physicochemical. The note with it: 333 μM, 8 mM phosphate buffer pH 7.3, 37° C. vs 5° C. The method in brief: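 Purity loss = (purity after 14 days at 5° C. minus that at 37° C.) relative to the 5° C. value, purity being main-peak area % by RP-UPLC with UV at 215 nm. Samples were 333 μM in 8 mM phosphate, pH 7.3; gradient adjusted for outlying retention times.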

T1 sequence (P43220 24-463): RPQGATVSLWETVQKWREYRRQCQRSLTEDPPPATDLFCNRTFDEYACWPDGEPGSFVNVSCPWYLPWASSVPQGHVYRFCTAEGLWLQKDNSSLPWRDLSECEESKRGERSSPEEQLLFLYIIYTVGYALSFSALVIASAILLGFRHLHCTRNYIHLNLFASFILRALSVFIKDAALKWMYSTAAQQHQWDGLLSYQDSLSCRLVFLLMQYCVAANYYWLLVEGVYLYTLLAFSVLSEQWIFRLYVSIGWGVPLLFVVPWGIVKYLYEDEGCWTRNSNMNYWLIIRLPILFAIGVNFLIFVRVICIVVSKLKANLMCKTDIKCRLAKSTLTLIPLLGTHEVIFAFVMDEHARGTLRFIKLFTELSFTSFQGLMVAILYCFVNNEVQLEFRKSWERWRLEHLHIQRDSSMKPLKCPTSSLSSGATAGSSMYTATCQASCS

Consider `CC(C)C[C@H](NC(=O)[C@H](Cc1ccc(O)cc1)NC(=O)[C@H](CCCCN)NC(=O)[C@H](CO)NC(=O)[C@H](CC(C)C)NC(=O)[C@H](CC(=O)O)NC(=O)[C@H](CO)NC(=O)[C@@H](NC(=O)[C@H](Cc1ccccc1)NC(=O)[C@@H](NC(=O)CNC(=O)[C@H](CCC(N)=O)NC(=O)C(C)(C)NC(=O)[C@@H](N)Cc1c[nH]cn1)[C@@H](C)O)[C@@H](C)O)C(=O)N[C@@H](CCC(=O)O)C(=O)N[C@@H](CO)C(=O)N[C@@H](CCCNC(=N)N)C(=O)N[C@@H](CCCNC(=N)N)C(=O)N[C@@H](C)C(=O)N[C@@H](CCCNC(=N)N)C(=O)N[C@@H](CCC(=O)O)C(=O)N[C@@H](Cc1ccccc1)C(=O)N[C@H](C(=O)N[C@@H](CCC(N)=O)C(=O)N[C@@H](Cc1c[nH]c2ccccc12)C(=O)N[C@@H](CC(C)C)C(=O)N[C@@H](CC(C)C)C(=O)N[C@@H](CCCCNC(=O)CC[C@H](NC(=O)CC[C@H](NC(=O)COCCOCCNC(=O)COCCOCCNC(=O)CC[C@H](NC(=O)CC[C@H](NC(=O)CCCCCCCCCCCCCCCCC(=O)O)C(=O)O)C(=O)O)C(=O)O)C(=O)O)C(=O)N[C@H](C(N)=O)[C@@H](C)O)C(C)C` [Example 60, N^ε28-[(4S)-4-carboxy-4-[[(4S)-4-carboxy-4-[[2-[2-[2-[[2-[2-[2-[[(4S)-4-carboxy-4-[[(4S)-4-carboxy-4-(17-carboxyheptadecanoylamino)butanoyl]amino]butanoyl]amino]ethoxy]ethoxy]acetyl]amino]ethoxy]ethoxy]acetyl]amino]butanoyl]amino]butanoyl]-[Aib2,Leu10,Glu15,Arg20,Glu21,Leu27,Lys28]-Glucagon amide] (H-H[Aib]QGTFTSDLSKYLESRRAREFVQWLLK([γGlu-γGlu-AEEA-AEEA-γGlu-γGlu-C18 diacid])T-NH2; N-terminus assumed), for which, at human GLP-1 receptor, the IC50 turned out to be 0.2 nM. For the same molecule, in data set [1], the “Purity loss; 14 days at 37° C.” value is 4%.
Taken in the same sequence, the figures for `CC(C)C[C@H](NC(=O)[C@H](Cc1ccc(O)cc1)NC(=O)[C@H](CCCCN)NC(=O)[C@H](CO)NC(=O)[C@H](CC(C)C)NC(=O)[C@H](CC(=O)O)NC(=O)[C@H](CO)NC(=O)[C@@H](NC(=O)[C@H](Cc1ccccc1)NC(=O)[C@@H](NC(=O)CNC(=O)[C@H](CCC(N)=O)NC(=O)C(C)(C)NC(=O)[C@@H](N)Cc1c[nH]cn1)[C@@H](C)O)[C@@H](C)O)C(=O)N[C@@H](CC(=O)O)C(=O)N[C@@H](C)C(=O)N[C@@H](CCCNC(=N)N)C(=O)N[C@@H](CCCNC(=N)N)C(=O)N[C@@H](C)C(=O)N[C@@H](CCCNC(=N)N)C(=O)N[C@@H](CC(=O)O)C(=O)N[C@@H](Cc1ccccc1)C(=O)N[C@H](C(=O)N[C@@H](CCC(N)=O)C(=O)N[C@@H](Cc1c[nH]c2ccccc12)C(=O)N[C@@H](CC(C)C)C(=O)N[C@@H](CC(C)C)C(=O)N[C@@H](CO)C(=O)N[C@@H](CCCCNC(=O)CC[C@H](NC(=O)CC[C@H](NC(=O)COCCOCCNC(=O)COCCOCCNC(=O)CC[C@H](NC(=O)CCCCCCCCCCCCCCCCC(=O)O)C(=O)O)C(=O)O)C(=O)O)C(N)=O)C(C)C` [Example 66, N^ε29-[(4S)-4-carboxy-4-[[(4S)-4-carboxy-4-[[2-[2-[2-[[2-[2-[2-[[(4S)-4-carboxy-4-(17-carboxyheptadecanoylamino)butanoyl]amino]ethoxy]ethoxy]acetyl]amino]ethoxy]ethoxy]acetyl]amino]butanoyl]amino]butanoyl]-[Aib2,Leu10,Ala16,Arg20,Leu27,Ser28,Lys29]-Glucagon amide] (H-H[Aib]QGTFTSDLSKYLDARRARDFVQWLLSK([γGlu-γGlu-AEEA-AEEA-γGlu-C18 diacid])-NH2; N-terminus assumed) were 0.6 nM and 2%.
On to `CC(C)C[C@H](NC(=O)[C@H](CC(=O)O)NC(=O)[C@H](CC(C)C)NC(=O)[C@H](Cc1ccc(O)cc1)NC(=O)[C@H](CCCCN)NC(=O)[C@H](CO)NC(=O)[C@H](CC(C)C)NC(=O)[C@H](CC(=O)O)NC(=O)[C@H](CO)NC(=O)[C@@H](NC(=O)[C@H](Cc1ccccc1)NC(=O)[C@@H](NC(=O)CNC(=O)[C@H](CCC(N)=O)NC(=O)C1(NC(=O)[C@@H](N)Cc2c[nH]cn2)CCC1)[C@@H](C)O)[C@@H](C)O)C(=O)N[C@@H](CCCNC(=N)N)C(=O)N[C@@H](CCCNC(=N)N)C(=O)N[C@@H](C)C(=O)N[C@@H](CCCNC(=N)N)C(=O)N[C@@H](CCC(=O)O)C(=O)N[C@@H](Cc1ccccc1)C(=O)N[C@H](C(=O)N[C@@H](CCC(N)=O)C(=O)N[C@@H](Cc1c[nH]c2ccccc12)C(=O)N[C@@H](CC(C)C)C(=O)N[C@@H](CC(C)C)C(=O)N[C@@H](CCCCNC(=O)CC[C@H](NC(=O)CC[C@H](NC(=O)COCCOCCNC(=O)COCCOCCNC(=O)CC[C@H](NC(=O)CC[C@H](NC(=O)CCCCCCCCCCCCCCCCC(=O)O)C(=O)O)C(=O)O)C(=O)O)C(=O)O)C(=O)N[C@H](C(N)=O)[C@@H](C)O)C(C)C` [Example 49, N^ε28-[(4S)-4-carboxy-4-[[(4S)-4-carboxy-4-[[2-[2-[2-[[2-[2-[2-[[(4S)-4-carboxy-4-[[(4S)-4-carboxy-4-(17-carboxyheptadecanoylamino)butanoyl]amino]butanoyl]amino]ethoxy]ethoxy]acetyl]amino]ethoxy]ethoxy]acetyl]amino]butanoyl]amino]butanoyl]-[Acb2,Leu10,Leu16,Arg20,Glu21,Leu27,Lys28]-Glucagon amide] (H-H[Ac4c]QGTFTSDLSKYLDLRRAREFVQWLLK([γGlu-γGlu-AEEA-AEEA-γGlu-γGlu-C18 diacid])T-NH2; N-terminus assumed), for which, on human GLP-1 receptor, the IC50 was found to be 0.4 nM. The “Purity loss; 14 days at 37° C.” value in data set [1] came out at 2%.
Taken in the same sequence, the figures for `CC(C)C[C@H](NC(=O)[C@H](Cc1ccc(O)cc1)NC(=O)[C@H](CCCCN)NC(=O)[C@H](CO)NC(=O)[C@H](CC(C)C)NC(=O)[C@H](CC(=O)O)NC(=O)[C@H](CO)NC(=O)[C@@H](NC(=O)[C@H](Cc1ccccc1)NC(=O)[C@@H](NC(=O)CNC(=O)[C@H](CCC(N)=O)NC(=O)C(C)(C)NC(=O)[C@@H](N)Cc1c[nH]cn1)[C@@H](C)O)[C@@H](C)O)C(=O)N[C@@H](CCC(=O)O)C(=O)N[C@@H](CO)C(=O)N[C@@H](CCCNC(=N)N)C(=O)N[C@@H](CCCNC(=N)N)C(=O)N[C@@H](C)C(=O)N[C@@H](CCCNC(=N)N)C(=O)N[C@@H](CCC(=O)O)C(=O)N[C@@H](Cc1ccccc1)C(=O)N[C@H](C(=O)N[C@@H](CCC(N)=O)C(=O)N[C@@H](Cc1c[nH]c2ccccc12)C(=O)N[C@@H](CC(C)C)C(=O)N[C@@H](CC(C)C)C(=O)N[C@@H](CCCCNC(=O)CC[C@H](NC(=O)CC[C@H](NC(=O)CC[C@H](NC(=O)CCCCCCCCCCCCCCCCC(=O)O)C(=O)O)C(=O)O)C(=O)O)C(=O)N[C@H](C(N)=O)[C@@H](C)O)C(C)C` [Example 41, N^ε28-[(4S)-4-carboxy-4-[[(4S)-4-carboxy-4-[[(4S)-4-carboxy-4-(17-carboxyheptadecanoylamino)butanoyl]amino]butanoyl]amino]butanoyl]-[Aib2,Leu10,Glu15, Arg20,Glu21,Leu27,Lys28]-Glucagon amide] (H-H[Aib]QGTFTSDLSKYLESRRAREFVQWLLK([γGlu-γGlu-γGlu-C18 diacid])T-NH2; N-terminus assumed) were 0.3 nM and 1%.
For `CC(C)C[C@H](NC(=O)[C@H](Cc1ccc(O)cc1)NC(=O)[C@H](CCCCN)NC(=O)[C@H](CO)NC(=O)[C@H](CC(C)C)NC(=O)[C@H](CC(=O)O)NC(=O)[C@H](CO)NC(=O)[C@@H](NC(=O)[C@H](Cc1ccccc1)NC(=O)[C@@H](NC(=O)CNC(=O)[C@H](CCC(N)=O)NC(=O)C1(NC(=O)[C@@H](N)Cc2c[nH]cn2)CCC1)[C@@H](C)O)[C@@H](C)O)C(=O)N[C@@H](CCC(=O)O)C(=O)N[C@@H](CO)C(=O)N[C@@H](CCCCN)C(=O)N[C@@H](CCCNC(=N)N)C(=O)N[C@@H](C)C(=O)N[C@@H](CCCNC(=N)N)C(=O)N[C@@H](CCC(=O)O)C(=O)N[C@@H](Cc1ccccc1)C(=O)N[C@H](C(=O)N[C@@H](CCC(N)=O)C(=O)N[C@@H](Cc1c[nH]c2ccccc12)C(=O)N[C@@H](CC(C)C)C(=O)N[C@@H](CC(C)C)C(=O)N[C@@H](CCCCNC(=O)CNC(=O)[C@H](CO)NC(=O)[C@H](CCC(=O)O)NC(=O)CNC(=O)[C@H](CO)NC(=O)CC[C@H](NC(=O)CC[C@H](NC(=O)CCCCCCCCCCCCCCCCC(=O)O)C(=O)O)C(=O)O)C(=O)N[C@H](C(N)=O)[C@@H](C)O)C(C)C` [Example 36, N^ε28-[2-[[(2S)-2-[[(2S)-4-carboxy-2-[[2-[[(2S)-2-[[(4S)-4-carboxy-4-[[(4S)-4-carboxy-4-(17-carboxyheptadecanoylamino)butanoyl]amino]butanoyl]amino]-3-hydroxypropanoyl]amino]acetyl]amino]butanoyl]amino]-3-hydroxypropanoyl]amino]acetyl]-[Acb2,Leu10,Glu15,Lys17, Arg20,Glu21,Leu27,Lys28]-Glucagon amide] (I: H-H[Ac4c]QGTFTSDLSKYLESKRAREFVQWLLKT-NH2 / II: {C18 diacid-γGlu-γGlu}-SGESG; amide I:28-II:C; N-terminus assumed), the IC50 at human GLP-1 receptor was 0.2 nM. Moreover, in data set [1], the “Purity loss; 14 days at 37° C.” value was found to be 2%.
